Measured values reported in ChEMBL document CHEMBL3272098, “Reactions of 2-acyloxyisobutyryl halides with nucleosides. 7. Synthesis and biological evaluation of some 2,2'-anhydro-1(3',5'-di-O-acyl-beta-D-arabinofuranosyl)cytosine hydrochlorides” (J Med Chem, 1976).
Active and inactive are the calls of the source. The calls are words filed in the database; no cut-off is given here.

Tests used:
HeLa = assay: Cytotoxicity against human HeLa cells after 48 hrs by Coulter counting analysis; format: functional; settings: read-out: ED50 (the source's name)
Vaccinia virus = assay: Antiviral activity against Vaccinia virus IHD infected in African green monkey BGM cells after 6 days by plaque reduction assay; format: functional; settings: Orthopoxvirus vaccinia, 144 h, read-out: ED50 (the source's name)
Herpesviridae sp. = assay: Antiviral activity against Herpes simplex virus HF infected in African green monkey BGM cells after 6 days by plaque reduction assay; format: functional; settings: 144 h, read-out: ED50 (the source's name)
BGM = assay: Antiviral activity against Poliovirus type 1 Mahoney infected in African green monkey BGM cells after 5 days by pulp disk diffusion assay; format: functional, cell-based; settings: Human poliovirus 1 Mahoney
Measles morbillivirus = assay: Antiviral activity against Measles virus infected in African green monkey BGM cells after 5 days by pulp disk diffusion assay; format: functional, organism-based
[1] = system: unidentified influenza virus; assay: Antiviral activity against Influenza virus Ao/WNS infected in monkey LLC-MK2 cells after 5 days by pulp disk diffusion assay; format: functional, organism-based
L1210 [2] = assay: Antitumor activity against mouse L1210 cells allografted in BDF1 mouse assessed as increase in life span at 50 mg/kg, ip administered 24 hrs post-implantation measured up to 30 days relative to control; format: functional; settings: route intraperitoneal
L1210 [3] = assay: Antitumor activity against mouse L1210 cells allografted in BDF1 mouse assessed as increase in life span at 200 mg/kg, ip administered 24 hrs post-implantation measured up to 30 days relative to control; format: functional; settings: route intraperitoneal
Mus musculus [4] = assay: Toxicity in BDF1 mouse allografted with mouse L1210 cells assessed as reduction in average life span at 500 mg/kg, ip administered 24 hrs post-implantation measured up to 30 days relative to control; format: organism-based; design: dose 500 mg/kg, route intraperitoneal; scale not given: the % may be the effect or the level left; settings: in vivo
Mus musculus [5] = assay: Toxicity in BDF1 mouse allografted with mouse L1210 cells assessed as reduction in average life span at 1000 mg/kg, ip administered 24 hrs post-implantation measured up to 30 days relative to control; format: organism-based; design: dose 1000 mg/kg, route intraperitoneal; scale not given: the % may be the effect or the level left; settings: in vivo
Mus musculus [6] = assay: Toxicity in BDF1 mouse allografted with mouse L1210 cells assessed as survival at 500 mg/kg, ip administered 24 hrs post-implantation after 30 days; format: organism-based; design: dose 500 mg/kg, route intraperitoneal; settings: in vivo, 720 h
Mus musculus [7] = assay: Toxicity in BDF1 mouse allografted with mouse L1210 cells assessed as survival at 1000 mg/kg, ip administered 24 hrs post-implantation after 30 days; format: organism-based; design: dose 1000 mg/kg, route intraperitoneal; settings: in vivo, 720 h
L1210 [8] = assay: Antitumor activity against mouse L1210 cells allografted in po dosed BDF1 mouse administered 24 hrs post-implantation; format: functional, organism-based
Mus musculus [9] = assay: Toxicity in BDF1 mouse allografted with mouse L1210 cells assessed as reduction in average life span at 200 mg/kg, ip administered 24 hrs post-implantation measured up to 30 days relative to control; format: organism-based; design: dose 200 mg/kg, route intraperitoneal; scale not given: the % may be the effect or the level left; settings: in vivo
L1210 [10] = assay: Antitumor activity against mouse L1210 cells allografted in BDF1 mouse assessed as survival at 50 mg/kg, ip administered 24 hrs post-implantation after 30 days; format: functional, organism-based; design: dose 50 mg/kg
Mus musculus [11] = assay: Toxicity in BDF1 mouse allografted with mouse L1210 cells assessed as survival at 200 mg/kg, ip administered 24 hrs post-implantation after 30 days; format: organism-based; design: dose 200 mg/kg, route intraperitoneal; settings: in vivo, 720 h
L1210 [12] = assay: Antitumor activity against mouse L1210 cells allografted in BDF1 mouse assessed as increase in life span at 500 mg/kg, ip administered 24 hrs post-implantation measured up to 30 days relative to control; format: functional; settings: route intraperitoneal
L1210 [13] = assay: Antitumor activity against mouse L1210 cells allografted in BDF1 mouse assessed as increase in life span at 1000 mg/kg, ip administered 24 hrs post-implantation measured up to 30 days relative to control; format: functional; settings: route intraperitoneal
L1210 [14] = assay: Antitumor activity against mouse L1210 cells allografted in BDF1 mouse assessed as survival at 200 mg/kg, ip administered 24 hrs post-implantation after 30 days; format: functional, organism-based; design: dose 200 mg/kg
L1210 [15] = assay: Antitumor activity against mouse L1210 cells allografted in BDF1 mouse assessed as survival at 500 mg/kg, ip administered 24 hrs post-implantation after 30 days; format: functional, organism-based; design: dose 500 mg/kg
L1210 [16] = assay: Antitumor activity against mouse L1210 cells allografted in BDF1 mouse assessed as survival at 1000 mg/kg, ip administered 24 hrs post-implantation after 30 days; format: functional, organism-based; design: dose 1000 mg/kg

Row | SMILES | EC50 (HeLa) | EC50 (Vaccinia virus) | EC50 (Herpesviridae sp.) | Activity (BGM) | Activity (Measles morbillivirus) | Activity [1] | ILS at 50 mg/kg (L1210 [2]) | ILS at 200 mg/kg (L1210 [3]) | Activity (L1210 [8]) | Activity (L1210 [10]) | Activity (L1210 [14]) | further results
1 | CCCCCCCCCCCCCC(=O)OC[C@H]1O[C@@H]2[C@@H](Oc3nc(=N)ccn32)[C@@H]1OC(=O)CCCCCCCCCCCCC.Cl | 0.48 µg/mL | 1750 nM | 6050 nM | inactive | inactive | inactive | > 129% | > 295% | inactive |  |  | Activity (Mus musculus [4]): 20%; Activity (Mus musculus [5]): 18%; Activity (Mus musculus [6]): Toxic; Activity (Mus musculus [7]): Toxic
2 | CCCCCCCCC(=O)OC[C@H]1O[C@@H]2[C@@H](Oc3nc(=N)ccn32)[C@@H]1OC(=O)CCCCCCCC.Cl | 0.06 µg/mL | 320 nM | 420 nM | inactive | inactive | inactive | 14% |  | inactive | inactive |  | Activity (Mus musculus [9]): 88%; Activity (Mus musculus [11]): Toxic
3 | Cl.N=c1ccn2c(n1)O[C@H]1[C@H](O)[C@@H](CO)O[C@H]12 [ANCITABINE HYDROCHLORIDE] | 0.06 µg/mL | 410 nM | 700 nM | inactive | inactive | inactive |  | 25% | inactive |  | inactive | ILS at 500 mg/kg (L1210 [12]): 67%; ILS at 1000 mg/kg (L1210 [13]): 89%; Activity (L1210 [15]): inactive; Activity (L1210 [16]): inactive
4 | CCCCCCCCCCCC(=O)OC[C@H]1O[C@@H]2[C@@H](Oc3nc(=N)ccn32)[C@@H]1OC(=O)CCCCCCCCCCC.Cl | 0.48 µg/mL | 700 nM | 3450 nM | inactive | inactive | inactive | > 195% | > 310% | inactive |  | Active | Activity (Mus musculus [4]): 23%; Activity (Mus musculus [5]): 18%; Activity (Mus musculus [6]): Toxic; Activity (Mus musculus [7]): Toxic
5 | CCCCCCCCCCC(=O)OC[C@H]1O[C@@H]2[C@@H](Oc3nc(=N)ccn32)[C@@H]1OC(=O)CCCCCCCCCC.Cl | 0.32 µg/mL | 410 nM | 660 nM | inactive | inactive | inactive | 88% | > 179% | inactive | inactive |  | ILS at 500 mg/kg (L1210 [12]): > 20%
6 | CCCCCCCCCCCCCCCC(=O)OC[C@H]1O[C@@H]2[C@@H](Oc3nc(=N)ccn32)[C@@H]1OC(=O)CCCCCCCCCCCCCCC.Cl | 4 µg/mL | 28000 nM | > 30000 nM | inactive | inactive | inactive |  | 231% | inactive |  | inactive | 
7 | CC(=O)O[C@H]1[C@@H]2Oc3nc(=N)ccn3[C@@H]2O[C@@H]1COC(=O)C(C)(C)C.Cl | 0.2 µg/mL | 770 nM | 3200 nM | inactive | inactive | inactive |  | 18% | inactive |  | inactive | 
8 | CCCCCCCCCCCCCCCCCCCCCC(=O)OC[C@H]1O[C@@H]2[C@@H](Oc3nc(=N)ccn32)[C@@H]1OC(=O)CCCCCCCCCCCCCCCCCCCCC.Cl | > 10 µg/mL | > 30000 nM | > 30000 nM | inactive | inactive | inactive | 15% | 55% | inactive | inactive | inactive | ILS at 1000 mg/kg (L1210 [13]): 139%; Activity (L1210 [16]): inactive
9 | CC(=O)O[C@H]1[C@@H]2Oc3nc(=N)ccn3[C@@H]2O[C@@H]1COC(=O)C12CC3CC(CC(C3)C1)C2.Cl | 0.2 µg/mL | 640 nM | 2100 nM | inactive | inactive | inactive |  |  | inactive |  |  | Activity (Mus musculus [9]): 100%; Activity (Mus musculus [11]): Toxic
10 | CCCCCCCC(=O)OC[C@H]1O[C@@H]2[C@@H](Oc3nc(=N)ccn32)[C@@H]1OC(=O)CCCCCCC.Cl | 0.1 µg/mL | 560 nM | 1350 nM | inactive | inactive | inactive |  | 28% | inactive |  | inactive | 
11 | CCCCCCCCCCCCCCCCCCCC(=O)OC[C@H]1O[C@@H]2[C@@H](Oc3nc(=N)ccn32)[C@@H]1OC(=O)CCCCCCCCCCCCCCCCCCC.Cl | 2.5 µg/mL | > 30000 nM | > 30000 nM | inactive | inactive | inactive | 8% | 31% | inactive | inactive | inactive | ILS at 1000 mg/kg (L1210 [13]): 107%; Activity (L1210 [16]): inactive
12 | CC(=O)OC[C@H]1O[C@@H]2[C@@H](Oc3nc(=N)ccn32)[C@@H]1OC(C)=O.Cl | 0.2 µg/mL | 690 nM | 2400 nM | inactive | inactive | inactive |  | 7% | inactive |  | inactive | 
13 | CC(=O)O[C@H]1[C@@H]2Oc3nc(=N)ccn3[C@@H]2O[C@@H]1COC(=O)C12C=CC(C)(CC1)CC2.Cl | 0.2 µg/mL | 400 nM | 1750 nM | inactive | inactive | inactive |  | 20% | inactive |  | inactive | 
14 | CCCC(=O)OC[C@H]1O[C@@H]2[C@@H](Oc3nc(=N)ccn32)[C@@H]1OC(=O)CCC.Cl | 0.11 µg/mL | 1550 nM | 4900 nM | inactive | inactive | inactive |  | 58% | inactive |  | inactive | ILS at 500 mg/kg (L1210 [12]): 85%; Activity (Mus musculus [5]): 100%; Activity (L1210 [15]): inactive; Activity (Mus musculus [7]): Toxic
15 | CCCCCCCCCC(=O)OC[C@H]1O[C@@H]2[C@@H](Oc3nc(=N)ccn32)[C@@H]1OC(=O)CCCCCCCCC.Cl | 0.2 µg/mL | 320 nM | 1100 nM | inactive | inactive | inactive | 14% |  | inactive | inactive |  | Activity (Mus musculus [9]): 69%; Activity (Mus musculus [5]): 72%; Activity (Mus musculus [11]): Toxic; Activity (Mus musculus [7]): Toxic
16 | CCCCCCCC/C=C/CCCCCCCC(=O)OC[C@H]1O[C@@H]2[C@@H](Oc3nc(=N)ccn32)[C@@H]1OC(=O)CCCCCCC/C=C/CCCCCCCC.Cl | 1.4 µg/mL | 4700 nM | 9300 nM | inactive | inactive | inactive | 114% | > 258% | inactive | inactive |  | ILS at 500 mg/kg (L1210 [12]): > 257%; ILS at 1000 mg/kg (L1210 [13]): 11%; Activity (L1210 [15]): Active; Activity (L1210 [16]): inactive
17 | CCCCCCCCCCCCCCCCCC(=O)OC[C@H]1O[C@@H]2[C@@H](Oc3nc(=N)ccn32)[C@@H]1OC(=O)CCCCCCCCCCCCCCCCC.Cl | 3.8 µg/mL | > 30000 nM | > 30000 nM | inactive | inactive | inactive | 68% | 125% | inactive | inactive | inactive | ILS at 1000 mg/kg (L1210 [13]): > 255%; Activity (L1210 [16]): Active
